# Marks after values point to notes of the source that are not given here. Strand notation (5' to 3'): a small letter for the sugar, then the base; units joined by * are phosphorothioate-linked, units joined directly phosphodiester-linked; [ ] holds rarer units or linkages, { } end groups; capitals alone tell only the bases. [ms] = mesyl phosphoramidate linkage; k = constrained ethyl (cEt); [5mC] = 5-methylcytosine; d = 2'-deoxy (DNA)
# Key:
# [1] = test system: human APOE RNA; assay: Dose-dependent inhibition of human APOE RNA in HepG2 cells, electroporation, 50,000 cells per well, RT-PCR normalized to GAPDH (Example 4, Tables 8-10); type: cell-based; conditions: HepG2 cells, electroporation, Table 8
# Outline: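 Readout is percent APOE RNA versus untreated controls, measured by RT-PCR (primer probe set RTS3073) and normalized to human GAPDH. Modified oligonucleotides were delivered by electroporation at varying doses into HepG2 cells plated at 50,000 per well.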
# [2] = test system: human APOE RNA; assay: Activity in APOE C57BL/6NTac-Apoeem7250 knock-in mice, single ICV bolus, 16 weeks (Example 12); type: in vivo; conditions: single ICV bolus 300 μg, 16 weeks post treatment, normalized to mouse Ppia
# Outline: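 A single 300 μg intracerebroventricular dose was given, with PBS-treated mice as reference; cortical and spinal cord tissue was taken 16 weeks later. RT-qPCR quantified human APOE RNA, Ppia-normalized, expressed relative to PBS animals (% control).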
# [3] = test system: human APOE RNA; assay: Activity in APOE C57BL/6NTac-Apoeem7250 knock-in mice, single ICV bolus, 20 weeks (Example 13); type: in vivo; conditions: single ICV bolus 300 μg, 20 weeks post treatment, normalized to mouse Ppia
# Outline: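 Cortical and spinal cord RNA was assayed by real-time RT-PCR for human APOE, normalized to mouse Ppia and reported as percent of PBS controls. Tissue was taken twenty weeks after one 300 μg intracerebroventricular bolus in APOE knock-in mice, 4 per group.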
# [4] = test system: human APOE RNA; assay: Potency (dose response, ED50) in APOE C57BL/6NTac-Apoeem7250 knock-in mice, 8 weeks (Example 15); type: in vivo
# Procedure: Modified oligonucleotides described above were tested in the APOE C57BL/6NTac-Apoeem7250 knock-in mouse model described above.
# APOE C57BL/6NTac-Apoeem7250 knock-in mice were divided into groups of 3-4 mice each. A group of 4 mice received a single ICV bolus with PBS as a negative control.
# Eight weeks post treatment, mice were sacrificed, and RNA was extracted from cortical brain tissue and spinal cord for quantitative real-time RT-PCR analysis of RNA expression of […] using human primer probe set RTS3073 (described herein above). APOE RNA levels were normalized to mouse Ppia. Mouse Ppia was amplified using primer probe set m_cyclo24 (described herein above). Results are presented as percent human APOE RNA relative to the amount of APOE RNA in PBS treated animals, (% control). N.C. indicates values that were not calculated.
# The half maximal effective dose (ED50) of each modified oligonucleotide was calculated using GraphPad Prism 10 software (GraphPad Software, San Diego, CA).
# [5] = test system: human APOE RNA; assay: Duration of action study in APOE C57BL/6NTac-Apoeem7250 knock-in mice (Example 16); type: in vivo; conditions: 300 μg ICV
# Outline: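 Knock-in mice (2-4 per group) received a single ICV bolus of 300 μg oligonucleotide or PBS. At various timepoints, cortex and spinal cord human APOE RNA was measured by RT-qPCR (RTS3073), normalized to mouse Ppia and expressed as % of PBS control.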
# [6] = test system: human APOE RNA; assay: Duration of action study in APOE C57BL/6NTac-Apoeem7250 knock-in mice (Example 18); type: in vivo; conditions: single ICV bolus 300 μg, APOE knock-in mice, normalized to mouse Ppia, relative to PBS
# Outline: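 Single 300 μg ICV bolus of modified oligonucleotide; PBS-bolus mice as controls. At various timepoints, cortex and spinal cord RNA quantified by RT-qPCR, human APOE normalized to mouse Ppia and expressed as % of PBS-treated control.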
substance,measurement,setting,value
^mCksTksTksGdzGdzTdzGdzAdzAdzTds^mCdsTdsTdsTdsAdsTdsTksAksAdzAk (antisense k[5mC]*kT*kT*dG[ms]dG[ms]dT[ms]dG[ms]dA[ms]dA[ms]dT*d[5mC]*dT*dT*dT*dA*dT*kT*kA*dA[ms]kA) [Compound No. 1785602],APOE RNA (% UTC) 5 nM,"[1]; 24-hour treatment, 5 nM",96 % UTC
same,APOE RNA (% UTC) 13 nM,"[1]; 24-hour treatment, 13 nM",109 % UTC
same,APOE RNA (% UTC) 33 nM,"[1]; 24-hour treatment, 33 nM",83 % UTC
same,APOE RNA (% UTC) 82 nM,"[1]; 24-hour treatment, 82 nM",64 % UTC
same,APOE RNA (% UTC) 205 nM,"[1]; 24-hour treatment, 205 nM",55 % UTC
same,APOE RNA (% UTC) 512 nM,"[1]; 24-hour treatment, 512 nM",27 % UTC
same,"APOE RNA (% UTC) 1,280 nM","[1]; 24-hour treatment, 1,280 nM",18 % UTC
same,"APOE RNA (% UTC) 3,200 nM","[1]; 24-hour treatment, 3,200 nM",11 % UTC
same,"APOE RNA (% UTC) 8,000 nM","[1]; 24-hour treatment, 8,000 nM",8 % UTC
same,"APOE RNA (% UTC) 20,000 nM","[1]; 24-hour treatment, 20,000 nM",4 % UTC
same,IC50,"[1]; reduction of human APOE RNA, 24-hour treatment",0.22 µM
same,APOE RNA (% control) Cortex,[2]; cortex,38 % control
same,APOE RNA (% control) Spinal Cord,[2]; spinal cord,20 % control
same,APOE RNA (% control) Cortex,[3]; cortex,53 % control
same,APOE RNA (% control) Spinal Cord,[3]; spinal cord,28 % control
same,APOE RNA (% control) Cortex,"[4]; cortex, ICV dose 10 μg",95 % control
same,APOE RNA (% control) Cortex,"[4]; cortex, ICV dose 30 μg",90 % control
same,APOE RNA (% control) Cortex,"[4]; cortex, ICV dose 100 μg",57 % control
same,APOE RNA (% control) Cortex,"[4]; cortex, ICV dose 300 μg",31 % control
same,APOE RNA (% control) Cortex,"[4]; cortex, ICV dose 700 μg",21 % control
same,ED 50 (μg) Cortex,"[4]; cortex, single ICV bolus, GraphPad Prism 10",153.2 µg
same,APOE RNA (% control) Spinal Cord,"[4]; spinal cord, ICV dose 10 μg",73 % control
same,APOE RNA (% control) Spinal Cord,"[4]; spinal cord, ICV dose 30 μg",40 % control
same,APOE RNA (% control) Spinal Cord,"[4]; spinal cord, ICV dose 100 μg",26 % control
same,APOE RNA (% control) Spinal Cord,"[4]; spinal cord, ICV dose 300 μg",20 % control
same,APOE RNA (% control) Spinal Cord,"[4]; spinal cord, ICV dose 700 μg",22 % control
same,ED 50 (μg) Spinal Cord,"[4]; spinal cord, single ICV bolus, GraphPad Prism 10",26.9 µg
same,APOE RNA (% control) Cortex,[5]; 7 days post-dose,40 % control
same,APOE RNA (% control) Cortex,[5]; 14 days post-dose,30 % control
same,APOE RNA (% control) Spinal Cord,[5]; 7 days post-dose,56 % control
same,APOE RNA (% control) Spinal Cord,[5]; 14 days post-dose,28 % control
same,APOE RNA (% control) Cortex,[6]; 196 days post-dose,56 % control
same,APOE RNA (% control) Cortex,[6]; 224 days post-dose,79 % control
same,APOE RNA (% control) Cortex,[6]; 285 days post-dose,84† % control
same,APOE RNA (% control) Spinal Cord,[6]; 196 days post-dose,34 % control
same,APOE RNA (% control) Spinal Cord,[6]; 224 days post-dose,56 % control
same,APOE RNA (% control) Spinal Cord,[6]; 285 days post-dose,72† % control

# Source: patent publication US20250353873A1, “COMPOUNDS AND METHODS FOR MODULATING APOE EXPRESSION” (Ionis Pharmaceuticals, Inc., priority 2024, published 2025)
